Patent US8604053B2, “TRPV1 antagonists” (AbbVie Inc., priority 2008, dated 2013)

Legend:
[1] = target: T1, human TRPV1 receptor (hTRPV1) (Homo sapiens, UniProt Q8NER1); assay: Capsaicin activation assay (Ca2+ influx, FLIPR); type: cell-based; settings: hTRPV1 in 1321N1 cells, 0.05 μM capsaicin
T1 construct: expressed in transfected cells
Procedure, shortened: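 1321N1 astrocytoma cells stably expressing recombinant hTRPV1, loaded with Fluo-4 AM (2 μM, 1-2 h, 23 °C); compounds added 3 min before capsaicin (0.05 μM final), 11-point half-log range. Peak FLIPR fluorescence over baseline as % of capsaicin control; IC50 from four-parameter Hill fit.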

[2] = target: T2, CYP2C9 (Homo sapiens, UniProt P11712); assay: CYP2C9 inhibition assay; type: in vitro ADME; settings: human liver microsomes, substrate Luciferin-H; for inhibition at 25 min, 2.2 µM: pH 7.4, probe Luciferin-H (100 μM final), read-out: CYP2C9 % inh @ 2.2 μM
T2 construct: human liver microsomes (BD Gentest); tissue BD Gentest; host or cells: human liver microsomes
T2 sequence (P11712 whole entry): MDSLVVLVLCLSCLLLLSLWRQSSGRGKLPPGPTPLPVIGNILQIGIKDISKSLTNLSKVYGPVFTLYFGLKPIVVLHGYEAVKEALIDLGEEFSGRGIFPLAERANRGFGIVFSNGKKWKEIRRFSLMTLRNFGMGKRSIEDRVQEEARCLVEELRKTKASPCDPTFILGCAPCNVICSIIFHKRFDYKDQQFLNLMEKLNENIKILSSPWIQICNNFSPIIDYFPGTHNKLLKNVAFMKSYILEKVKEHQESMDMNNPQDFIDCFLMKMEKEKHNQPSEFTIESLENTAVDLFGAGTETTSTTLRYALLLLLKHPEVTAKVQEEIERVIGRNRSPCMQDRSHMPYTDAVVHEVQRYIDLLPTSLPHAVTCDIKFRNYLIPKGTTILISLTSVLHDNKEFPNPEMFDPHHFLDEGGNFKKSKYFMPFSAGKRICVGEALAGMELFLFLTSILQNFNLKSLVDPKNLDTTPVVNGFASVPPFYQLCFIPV
Procedure, shortened: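 Human liver microsomes (0.4 mg/mL) with NADPH-regenerating system in pH 7.4 phosphate, preincubated with compound 10 min at 37 °C. Luciferin-H (100 μM final) then added for 25 min at 37 °C, 1% DMSO. Luminescence read after Luciferin-H detection reagent; run in duplicate.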

[3] = Assessment of hemodynamic profile in anesthetized rat; type: in vivo; settings: i.v. infusion 3, 10 and 30 mg/kg/30 minutes/dose, relative to vehicle control group
Experimental: Male Sprague-Dawley rats were anesthetized with Inactin, instrumented, and allowed to stabilize. Following a 30 minute baseline period, test compound was infused via intravenous administration at 3, 10, and 30 mg/kg/30 minutes/dose in a low volume PEG-400 vehicle (1 mL/kg) or 20:40:40 dimethylacetamide:propylene glycol:PEG-400 vehicle (1 mL/kg). A separate group of animals received infusion of vehicle alone. Mean arterial pressure (MAP) and heart rate (HR) were observed and recorded.

T1 sequence (Q8NER1 whole entry): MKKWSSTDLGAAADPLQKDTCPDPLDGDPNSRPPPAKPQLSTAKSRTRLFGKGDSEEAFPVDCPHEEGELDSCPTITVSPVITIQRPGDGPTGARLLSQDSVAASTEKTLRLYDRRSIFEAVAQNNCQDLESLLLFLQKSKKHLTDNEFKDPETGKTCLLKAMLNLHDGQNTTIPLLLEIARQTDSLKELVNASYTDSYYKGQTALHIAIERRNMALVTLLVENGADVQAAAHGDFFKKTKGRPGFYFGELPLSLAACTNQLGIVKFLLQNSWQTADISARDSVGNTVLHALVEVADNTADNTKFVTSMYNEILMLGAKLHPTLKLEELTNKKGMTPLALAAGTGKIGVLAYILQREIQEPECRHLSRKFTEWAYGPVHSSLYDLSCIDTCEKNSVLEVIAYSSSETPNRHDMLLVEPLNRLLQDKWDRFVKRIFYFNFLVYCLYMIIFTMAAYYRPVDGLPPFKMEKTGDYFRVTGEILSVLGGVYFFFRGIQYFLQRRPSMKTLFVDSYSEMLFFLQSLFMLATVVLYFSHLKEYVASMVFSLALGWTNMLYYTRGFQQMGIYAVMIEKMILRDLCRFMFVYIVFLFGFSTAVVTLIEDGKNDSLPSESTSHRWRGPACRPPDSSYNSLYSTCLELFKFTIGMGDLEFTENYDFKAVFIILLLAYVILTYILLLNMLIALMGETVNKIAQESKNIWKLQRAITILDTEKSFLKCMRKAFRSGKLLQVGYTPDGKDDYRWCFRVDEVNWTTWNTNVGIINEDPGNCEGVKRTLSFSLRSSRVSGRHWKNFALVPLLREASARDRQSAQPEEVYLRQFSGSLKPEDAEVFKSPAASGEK

Compound | IC50 [1] | inhibition at 25 min, 2.2 µM [2] | Change in MAP or HR ≧ 15% ? [3] | CYP2C9 % inh @ 2.2 μM [2]
Cc1cc2c(NC(=O)N[C@@H]3CC(CF)(CF)Oc4cc(F)ccc43)cccc2cn1 [Example 96, N-[(4R)-7-fluoro-2,2-bis(fluoromethyl)-3,4-dihydro-2H-chromen-4-yl]-N′-(3-methylisoquinolin-5-yl)urea] | 15 nM | 4.1% | Yes (An observed increase or decrease of greater than 15% in MAP (mean arterial pressure) or HR (heart rate) in one or more of the animals in the test group relative to the vehicle control group is indicated as “Yes” in the table) | –
Cc1cc2c(NC(=O)N[C@@H]3CC(C)(C)Oc4cc(Cl)ccc43)cccc2cn1 [Example 97, N-[(4R)-7-chloro-2,2-dimethyl-3,4-dihydro-2H-chromen-4-yl]-N′-(3-methylisoquinolin-5-yl)urea] | 7 nM | 17% | Yes (An observed increase or decrease of greater than 15% in MAP (mean arterial pressure) or HR (heart rate) in one or more of the animals in the test group relative to the vehicle control group is indicated as “Yes” in the table) | –
Cc1cc2c(NC(=O)N[C@@H]3CC(CF)(CF)Oc4ccccc43)cccc2cn1 [Example 101, N-[(4R)-2,2-bis(fluoromethyl)-3,4-dihydro-2H-chromen-4-yl]-N′-(3-methylisoquinolin-5-yl)urea] | 91 nM | 11% | Yes (An observed increase or decrease of greater than 15% in MAP (mean arterial pressure) or HR (heart rate) in one or more of the animals in the test group relative to the vehicle control group is indicated as “Yes” in the table) | –
Cc1cc2c(NC(=O)N[C@@H]3CC(C)(C)Oc4c3ccc(F)c4Cl)cccc2cn1 [Example 110, N-[(4R)-8-chloro-7-fluoro-2,2-dimethyl-3,4-dihydro-2H-chromen-4-yl]-N′-(3-methylisoquinolin-5-yl)urea] | 23 nM | 13% | Yes (An observed increase or decrease of greater than 15% in MAP (mean arterial pressure) or HR (heart rate) in one or more of the animals in the test group relative to the vehicle control group is indicated as “Yes” in the table) | –
Cc1cc2c(NC(=O)N[C@@H]3CC(C)(C)Oc4c3ccc(F)c4F)cccc2cn1 [Example 113, N-[(4R)-7,8-difluoro-2,2-dimethyl-3,4-dihydro-2H-chromen-4-yl]-N′-(3-methylisoquinolin-5-yl)urea] | 12 nM | 7.6% | Yes (An observed increase or decrease of greater than 15% in MAP (mean arterial pressure) or HR (heart rate) in one or more of the animals in the test group relative to the vehicle control group is indicated as “Yes” in the table) | –
Cc1cc2c(NC(=O)N[C@@H]3CC(C)(C)Oc4cc(C(F)(F)F)ccc43)cccc2cn1 [Example 118, N-[(4R)-2,2-dimethyl-7-(trifluoromethyl)-3,4-dihydro-2H-chromen-4-yl]-N′-(3-methylisoquinolin-5-yl)urea] | 19 nM | 7.8% | Yes (An observed increase or decrease of greater than 15% in MAP (mean arterial pressure) or HR (heart rate) in one or more of the animals in the test group relative to the vehicle control group is indicated as “Yes” in the table) | –
Cc1cc2c(NC(=O)N[C@@H]3CC(C)(C)Oc4c(F)cccc43)cccc2cn1 [Example 119, N-[(4R)-8-fluoro-2,2-dimethyl-3,4-dihydro-2H-chromen-4-yl]-N′-(3-methylisoquinolin-5-yl)urea] | 28 nM | 2.1% | Yes (An observed increase or decrease of greater than 15% in MAP (mean arterial pressure) or HR (heart rate) in one or more of the animals in the test group relative to the vehicle control group is indicated as “Yes” in the table) | –
Cc1cc2c(NC(=O)N[C@@H]3CC(CF)(CF)Oc4c(F)cc(F)cc43)cccc2cn1 [Example 120, N-[(4R)-6,8-difluoro-2,2-bis(fluoromethyl)-3,4-dihydro-2H-chromen-4-yl]-N′-(3-methylisoquinolin-5-yl)urea] | 43 nM | 11% | No (an observed increase or decrease of less than or equal to 15% in MAP (mean arterial pressure) or HR (heart rate) in the test group of animals relative to the vehicle control group is indicated as “No” in the table) | –
Cc1cc2c(NC(=O)N[C@@H]3CC(C)(C)Oc4cc(F)ccc43)c(F)ccc2cn1 [Example 123, N-[(4R)-7-fluoro-2,2-dimethyl-3,4-dihydro-2H-chromen-4-yl]-N′-(6-fluoro-3-methylisoquinolin-5-yl)urea] | 27 nM | 19% | No (an observed increase or decrease of less than or equal to 15% in MAP (mean arterial pressure) or HR (heart rate) in the test group of animals relative to the vehicle control group is indicated as “No” in the table) | –
N-[(4R)-2,2-diethyl-6-fluoro-3,4-dihydro-2H-chromen-4-yl]-N-(3-methylisoquinolin-5-yl)urea [Example 56] | 15 nM | – | No (an observed increase or decrease of less than or equal to 15% in MAP (mean arterial pressure) or HR (heart rate) in the test group of animals relative to the vehicle control group is indicated as “No” in the table) | 20%
N-[(4R)-2,2-diethyl-8-fluoro-3,4-dihydro-2H-chromen-4-yl]-N-(3-methylisoquinolin-5-yl)urea [Example 62] | 4 nM | – | No (an observed increase or decrease of less than or equal to 15% in MAP (mean arterial pressure) or HR (heart rate) in the test group of animals relative to the vehicle control group is indicated as “No” in the table) | 22%
N-[(4R)-6,8-difluoro-2,2-dimethyl-3,4-dihydro-2H-chromen-4-yl]-N-(3-methylisoquinolin-5-yl)urea [Example 98] | 17 nM | – | Yes (An observed increase or decrease of greater than 15% in MAP (mean arterial pressure) or HR (heart rate) in one or more of the animals in the test group relative to the vehicle control group is indicated as “Yes” in the table) | 8.4%
